Values of other authors in patent US20220241230A1, “DICLOFENAC SACHET COMPOSITION” (Patrin Pharma, Inc., priority 2021, published 2022).

How the values were obtained:
[1] = 100 mg and 50 mg tablets, versus placebo
[2] = commercially available sugar coated tablets
[3] = 50 mg and 100 mg sugar coated tablets

terminal half-life [2] | SMILES | effectiveness against migraine pain within two hours of treatment [1] | effectiveness against phonophobia and photophobia within two hours [1] | incidence of headache recurrence within 48 hours of treatment (50 mg and 100 mg immediate release tablets, versus placebo, statistical significance not reported) | effectiveness against phonophobia two hours after treatment [3] | effectiveness against photophobia eight hours after treatment [3] | effectiveness against photophobia two hours after treatment [3] | relief of migraine pain within two hours of treatment [3] | effectiveness against photophobia eight hours after treatment, 50 mg dose (50 mg sugar coated tablets)
 | O=C(O)Cc1ccccc1Nc1c(Cl)cccc1Cl [diclofenac, [(2,6-dichloro-anilino)-2-phenyl]-2-acetic acid] | both strengths were effective | only the 100 mg strength was effective |  |  |  |  |  | 
about 1.9 hours | O=C(O)Cc1ccccc1Nc1c(Cl)cccc1Cl [diclofenac potassium, Diclofenac potassium] |  |  | higher incidence of headache recurrence than patients treated with placebo | only the 100 mg dose was effective | both doses were effective | neither dose was effective | ability of both doses to relieve migraine pain | effective
